Measured values from the kinase profiling compilation of Christmann-Franck et al. (2016).

Key:
Assay in all cases: KINOMEscan competition binding
Details in all cases: compound 10.0 µM
MAP3K12 (human) = MAP3K12 (human) (UniProt Q12852)
FGFR4 (human) = FGFR4 (human) (UniProt P22455)
CDK5 (human) = CDK5 (human) (UniProt Q00535)
MYLK4 (human) = MYLK4 (human) (UniProt Q86YV6)
RPS6KA2 KD2 (human) = RPS6KA2 KD2 (human) (UniProt Q15349)
CSK (human) = CSK (human) (UniProt P41240)
INSR (human) = INSR (human) (UniProt P06213)
MAP3K9 (human) = MAP3K9 (human) (UniProt P80192)
PAK1 (human) = PAK1 (human) (UniProt Q13153)
AURKA (human) = AURKA (human) (UniProt O14965)
Chain of AURKA (human) (O14965 whole entry, looked up): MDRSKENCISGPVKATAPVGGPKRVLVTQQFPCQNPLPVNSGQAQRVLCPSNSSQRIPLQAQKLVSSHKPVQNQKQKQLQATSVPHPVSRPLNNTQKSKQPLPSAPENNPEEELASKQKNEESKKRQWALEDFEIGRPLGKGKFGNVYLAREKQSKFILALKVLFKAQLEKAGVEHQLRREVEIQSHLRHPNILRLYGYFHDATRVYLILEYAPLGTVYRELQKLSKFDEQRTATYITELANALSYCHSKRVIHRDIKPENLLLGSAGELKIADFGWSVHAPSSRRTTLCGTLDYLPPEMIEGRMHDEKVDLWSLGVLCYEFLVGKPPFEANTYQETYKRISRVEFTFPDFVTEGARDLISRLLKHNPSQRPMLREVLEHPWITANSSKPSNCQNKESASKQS

ROCK2 (human) = ROCK2 (human) (UniProt O75116)
STK10 (human) = STK10 (human) (UniProt O94804)
Chain of STK10 (human) (O94804 whole entry, looked up): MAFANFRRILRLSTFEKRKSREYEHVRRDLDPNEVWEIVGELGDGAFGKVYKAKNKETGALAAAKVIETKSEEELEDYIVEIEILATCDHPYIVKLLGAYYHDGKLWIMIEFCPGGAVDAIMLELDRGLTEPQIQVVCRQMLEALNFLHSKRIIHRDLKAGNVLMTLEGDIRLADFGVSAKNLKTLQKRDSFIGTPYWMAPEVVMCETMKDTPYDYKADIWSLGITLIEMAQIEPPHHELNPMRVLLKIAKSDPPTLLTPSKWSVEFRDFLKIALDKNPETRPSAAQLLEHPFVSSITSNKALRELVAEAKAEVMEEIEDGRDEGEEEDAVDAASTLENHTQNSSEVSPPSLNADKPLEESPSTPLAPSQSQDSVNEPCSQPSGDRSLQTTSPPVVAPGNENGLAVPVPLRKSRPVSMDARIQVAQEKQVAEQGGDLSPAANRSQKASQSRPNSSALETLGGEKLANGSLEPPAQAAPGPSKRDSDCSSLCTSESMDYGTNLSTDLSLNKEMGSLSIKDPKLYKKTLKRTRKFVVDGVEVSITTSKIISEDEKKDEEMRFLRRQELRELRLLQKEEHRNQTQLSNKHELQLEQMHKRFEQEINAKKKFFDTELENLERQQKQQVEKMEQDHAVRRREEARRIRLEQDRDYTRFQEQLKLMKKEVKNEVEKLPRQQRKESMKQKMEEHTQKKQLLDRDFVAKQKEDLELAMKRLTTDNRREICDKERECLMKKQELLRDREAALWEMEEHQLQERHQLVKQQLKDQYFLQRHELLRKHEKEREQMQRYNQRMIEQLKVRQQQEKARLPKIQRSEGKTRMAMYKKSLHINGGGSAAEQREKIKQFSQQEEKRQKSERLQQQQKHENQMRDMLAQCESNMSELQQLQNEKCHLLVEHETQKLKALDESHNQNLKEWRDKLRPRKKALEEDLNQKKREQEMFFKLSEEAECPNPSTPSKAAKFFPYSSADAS

RPS6KA4 KD2 (human) = RPS6KA4 KD2 (human) (UniProt O75676)
MAPK6 (human) = MAPK6 (human) (UniProt Q16659)
PDGFRA (human) = PDGFRA (human) (UniProt P16234)
RPS6KA3 KD1 (human) = RPS6KA3 KD1 (human) (UniProt P51812)
Chain of RPS6KA3 KD1 (human) (P51812 whole entry, looked up): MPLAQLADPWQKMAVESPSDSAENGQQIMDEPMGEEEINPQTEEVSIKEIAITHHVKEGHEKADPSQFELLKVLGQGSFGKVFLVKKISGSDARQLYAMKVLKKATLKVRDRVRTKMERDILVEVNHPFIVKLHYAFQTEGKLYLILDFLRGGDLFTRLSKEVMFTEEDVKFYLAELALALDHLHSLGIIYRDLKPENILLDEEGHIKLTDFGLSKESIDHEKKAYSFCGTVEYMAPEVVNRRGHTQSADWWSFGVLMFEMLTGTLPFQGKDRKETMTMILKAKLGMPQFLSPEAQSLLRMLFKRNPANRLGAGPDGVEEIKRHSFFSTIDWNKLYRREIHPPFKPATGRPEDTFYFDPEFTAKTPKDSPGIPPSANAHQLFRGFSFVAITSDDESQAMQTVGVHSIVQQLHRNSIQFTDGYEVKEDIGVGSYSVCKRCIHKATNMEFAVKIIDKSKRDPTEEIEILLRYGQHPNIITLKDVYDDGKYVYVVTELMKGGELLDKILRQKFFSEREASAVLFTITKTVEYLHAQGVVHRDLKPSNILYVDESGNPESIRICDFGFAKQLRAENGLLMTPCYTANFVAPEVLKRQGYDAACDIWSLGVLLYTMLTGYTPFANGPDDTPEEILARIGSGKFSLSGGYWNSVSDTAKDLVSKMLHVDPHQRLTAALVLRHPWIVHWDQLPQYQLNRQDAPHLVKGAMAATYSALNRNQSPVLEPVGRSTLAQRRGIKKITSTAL

NTRK3 (human) = NTRK3 (human) (UniProt Q16288)
CLK4 (human) = CLK4 (human) (UniProt Q9HAZ1)
MYO3B (human) = MYO3B (human) (UniProt Q8WXR4)
MAP4K3 (human) = MAP4K3 (human) (UniProt Q8IVH8)
[1] = target: TYK2 JH2 pseudokinase (human) (UniProt P29597)
RIPK4 (human) = RIPK4 (human) (UniProt P57078)
PIP5K1A (human) = PIP5K1A (human) (UniProt Q99755)
BMPR1A (human) = BMPR1A (human) (UniProt P36894)
Chain of BMPR1A (human) (P36894 whole entry, looked up): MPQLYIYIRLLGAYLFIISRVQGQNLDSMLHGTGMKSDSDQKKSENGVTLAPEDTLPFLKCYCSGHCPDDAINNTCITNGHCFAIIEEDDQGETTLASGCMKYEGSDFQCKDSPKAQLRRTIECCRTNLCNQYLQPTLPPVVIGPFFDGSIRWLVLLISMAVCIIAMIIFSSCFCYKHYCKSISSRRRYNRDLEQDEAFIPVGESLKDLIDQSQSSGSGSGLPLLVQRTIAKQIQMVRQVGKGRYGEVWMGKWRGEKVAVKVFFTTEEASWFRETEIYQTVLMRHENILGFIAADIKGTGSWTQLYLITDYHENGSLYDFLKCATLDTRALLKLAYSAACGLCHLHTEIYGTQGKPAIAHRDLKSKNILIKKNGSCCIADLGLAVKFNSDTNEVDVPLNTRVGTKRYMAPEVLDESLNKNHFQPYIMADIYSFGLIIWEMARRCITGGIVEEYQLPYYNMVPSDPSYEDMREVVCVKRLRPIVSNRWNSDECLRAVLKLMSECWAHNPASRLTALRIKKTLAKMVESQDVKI

CDKL2 (human) = CDKL2 (human) (UniProt Q92772)
MAP4K4 (human) = MAP4K4 (human) (UniProt O95819)
Chain of MAP4K4 (human) (O95819 whole entry, looked up): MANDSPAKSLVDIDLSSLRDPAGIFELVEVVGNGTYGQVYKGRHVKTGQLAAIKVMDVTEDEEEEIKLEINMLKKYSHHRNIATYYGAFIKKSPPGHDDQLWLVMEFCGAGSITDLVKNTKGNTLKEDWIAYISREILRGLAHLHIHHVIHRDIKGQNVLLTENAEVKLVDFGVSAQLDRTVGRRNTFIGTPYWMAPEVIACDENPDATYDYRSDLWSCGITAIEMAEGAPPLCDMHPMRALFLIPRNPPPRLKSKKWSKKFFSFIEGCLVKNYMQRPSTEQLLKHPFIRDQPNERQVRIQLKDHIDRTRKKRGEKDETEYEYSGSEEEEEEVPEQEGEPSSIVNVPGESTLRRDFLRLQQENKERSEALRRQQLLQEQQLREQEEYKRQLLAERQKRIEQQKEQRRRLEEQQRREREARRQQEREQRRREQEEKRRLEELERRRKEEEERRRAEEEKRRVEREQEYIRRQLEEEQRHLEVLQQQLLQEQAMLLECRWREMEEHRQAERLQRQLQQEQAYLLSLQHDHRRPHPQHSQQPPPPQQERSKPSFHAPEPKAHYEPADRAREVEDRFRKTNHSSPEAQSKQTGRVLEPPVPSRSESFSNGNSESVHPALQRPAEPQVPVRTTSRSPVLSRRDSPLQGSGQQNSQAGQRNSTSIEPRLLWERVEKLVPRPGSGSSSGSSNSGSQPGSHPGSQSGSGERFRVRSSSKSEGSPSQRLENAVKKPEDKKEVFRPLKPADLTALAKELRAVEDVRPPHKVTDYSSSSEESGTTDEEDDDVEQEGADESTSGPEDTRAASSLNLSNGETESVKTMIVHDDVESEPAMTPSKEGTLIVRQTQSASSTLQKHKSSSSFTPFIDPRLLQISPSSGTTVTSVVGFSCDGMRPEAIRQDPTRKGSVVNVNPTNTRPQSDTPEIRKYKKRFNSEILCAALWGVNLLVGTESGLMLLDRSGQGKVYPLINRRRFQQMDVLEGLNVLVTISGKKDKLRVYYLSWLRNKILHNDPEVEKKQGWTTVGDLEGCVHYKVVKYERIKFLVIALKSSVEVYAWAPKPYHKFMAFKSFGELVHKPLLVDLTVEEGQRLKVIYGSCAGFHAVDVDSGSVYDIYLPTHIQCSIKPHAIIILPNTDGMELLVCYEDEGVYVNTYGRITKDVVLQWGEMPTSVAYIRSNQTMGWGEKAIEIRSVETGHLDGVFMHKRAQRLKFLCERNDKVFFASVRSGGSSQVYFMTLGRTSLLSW

IRAK3 (human) = IRAK3 (human) (UniProt Q9Y616)
KDR (human) = KDR (human) (UniProt P35968)
CSNK1G2 (human) = CSNK1G2 (human) (UniProt P78368)
[2] = system: KIT (human), P10721 [V559D]
STK32B (human) = STK32B (human) (UniProt Q9NY57)
EPHB3 (human) = EPHB3 (human) (UniProt P54753)
PRKCQ (human) = PRKCQ (human) (UniProt Q04759)
RPS6KA5 KD2 (human) = RPS6KA5 KD2 (human) (UniProt O75582)
TESK1 (human) = TESK1 (human) (UniProt Q15569)
PAK2 (human) = PAK2 (human) (UniProt Q13177)
CAMKK2 (human) = CAMKK2 (human) (UniProt Q96RR4)
MAP2K4 (human) = MAP2K4 (human) (UniProt P45985)
CHEK2 (human) = CHEK2 (human) (UniProt O96017)
FGFR2 (human) = FGFR2 (human) (UniProt P21802)

Chain of CDK5 (human) (Q00535 whole entry, looked up): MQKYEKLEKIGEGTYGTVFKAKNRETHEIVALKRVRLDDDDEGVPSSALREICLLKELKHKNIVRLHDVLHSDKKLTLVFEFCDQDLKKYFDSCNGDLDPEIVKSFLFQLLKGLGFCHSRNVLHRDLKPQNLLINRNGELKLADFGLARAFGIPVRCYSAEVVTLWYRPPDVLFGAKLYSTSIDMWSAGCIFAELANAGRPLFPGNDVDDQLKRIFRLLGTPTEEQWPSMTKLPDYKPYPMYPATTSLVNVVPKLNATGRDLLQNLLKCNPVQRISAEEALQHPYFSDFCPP
Chain of FGFR4 (human) (P22455 whole entry, looked up): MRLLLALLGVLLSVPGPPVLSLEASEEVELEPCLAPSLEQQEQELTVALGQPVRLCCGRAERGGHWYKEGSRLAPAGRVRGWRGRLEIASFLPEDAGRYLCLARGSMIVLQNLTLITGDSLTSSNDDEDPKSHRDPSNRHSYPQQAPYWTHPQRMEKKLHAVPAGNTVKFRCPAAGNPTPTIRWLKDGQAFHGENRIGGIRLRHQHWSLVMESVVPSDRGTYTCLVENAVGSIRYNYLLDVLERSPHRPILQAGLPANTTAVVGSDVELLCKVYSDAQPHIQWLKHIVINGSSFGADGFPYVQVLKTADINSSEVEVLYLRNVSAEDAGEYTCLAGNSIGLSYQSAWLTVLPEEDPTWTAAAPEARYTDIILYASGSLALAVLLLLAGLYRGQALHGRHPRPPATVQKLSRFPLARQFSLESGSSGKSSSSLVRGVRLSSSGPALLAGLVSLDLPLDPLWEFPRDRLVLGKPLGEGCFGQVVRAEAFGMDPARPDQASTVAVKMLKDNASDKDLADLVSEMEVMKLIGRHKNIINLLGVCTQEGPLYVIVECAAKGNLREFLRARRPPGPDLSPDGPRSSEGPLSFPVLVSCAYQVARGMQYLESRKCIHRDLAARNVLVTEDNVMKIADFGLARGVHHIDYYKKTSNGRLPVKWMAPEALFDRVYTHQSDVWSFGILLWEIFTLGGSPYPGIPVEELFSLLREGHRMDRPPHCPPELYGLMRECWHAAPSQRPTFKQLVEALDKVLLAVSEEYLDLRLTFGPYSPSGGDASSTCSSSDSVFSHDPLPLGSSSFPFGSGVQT

Compound | kinase still bound, per cent of control (MAP3K12 (human)) [%] | kinase still bound, per cent of control (FGFR4 (human)) [%] | kinase still bound, per cent of control (CDK5 (human)) [%] | kinase still bound, per cent of control (MYLK4 (human)) [%] | kinase still bound, per cent of control (RPS6KA2 KD2 (human)) [%] | kinase still bound, per cent of control (CSK (human)) [%] | kinase still bound, per cent of control (INSR (human)) [%] | kinase still bound, per cent of control (MAP3K9 (human)) [%] | kinase still bound, per cent of control (PAK1 (human)) [%] | kinase still bound, per cent of control (AURKA (human)) [%] | kinase still bound, per cent of control (ROCK2 (human)) [%] | kinase still bound, per cent of control (STK10 (human)) [%] | kinase still bound, per cent of control (RPS6KA4 KD2 (human)) [%] | kinase still bound, per cent of control (MAPK6 (human)) [%] | kinase still bound, per cent of control (PDGFRA (human)) [%] | kinase still bound, per cent of control (RPS6KA3 KD1 (human)) [%] | kinase still bound, per cent of control (NTRK3 (human)) [%] | kinase still bound, per cent of control (CLK4 (human)) [%] | kinase still bound, per cent of control (MYO3B (human)) [%] | kinase still bound, per cent of control (MAP4K3 (human)) [%] | further results
Cc1cc([C@@H](C)Nc2ccccc2C(=O)O)c2nc(N3CCOCC3)cc(=O)n2c1 | 85 | 100 | 100 | 98 | 98 | 100 | 100 | 91 | 100 | 100 | 91 | 100 | 100 | 100 | 84 | 91 | 98 | 68 | 93 | 88 | kinase still bound, per cent of control [1]: 100%; kinase still bound, per cent of control (RIPK4 (human)): 99%; kinase still bound, per cent of control (PIP5K1A (human)): 100%; kinase still bound, per cent of control (BMPR1A (human)): 97%; kinase still bound, per cent of control (CDKL2 (human)): 91%; kinase still bound, per cent of control (MAP4K4 (human)): 97%; kinase still bound, per cent of control (IRAK3 (human)): 58%; kinase still bound, per cent of control (KDR (human)): 100%; kinase still bound, per cent of control (CSNK1G2 (human)): 88%; kinase still bound, per cent of control [2]: 91%; kinase still bound, per cent of control (STK32B (human)): 71%; kinase still bound, per cent of control (EPHB3 (human)): 100%; kinase still bound, per cent of control (PRKCQ (human)): 97%; kinase still bound, per cent of control (RPS6KA5 KD2 (human)): 91%; kinase still bound, per cent of control (TESK1 (human)): 100%; kinase still bound, per cent of control (PAK2 (human)): 100%; kinase still bound, per cent of control (CAMKK2 (human)): 100%; kinase still bound, per cent of control (MAP2K4 (human)): 100%; kinase still bound, per cent of control (CHEK2 (human)): 100%
CCCS(=O)(=O)Nc1ccc(F)c(C(=O)c2c[nH]c3ncc(-c4ccc(Cl)cc4)cc23)c1F | 62 | 100 | 96 | 0.45 | 81 | 7.4 | 78 | 52 | 95 | 81 | 77 | 16 | 96 | 100 | 0.45 | 76 | 65 | 100 | 64 | 56 | kinase still bound, per cent of control (FGFR2 (human)): 64%; kinase still bound, per cent of control [1]: 100%; kinase still bound, per cent of control (RIPK4 (human)): 91%; kinase still bound, per cent of control (PIP5K1A (human)): 100%; kinase still bound, per cent of control (BMPR1A (human)): 34%; kinase still bound, per cent of control (CDKL2 (human)): 49%; kinase still bound, per cent of control (MAP4K4 (human)): 48%; kinase still bound, per cent of control (KDR (human)): 31%; kinase still bound, per cent of control (CSNK1G2 (human)): 88%; kinase still bound, per cent of control [2]: 0.05%; kinase still bound, per cent of control (STK32B (human)): 100%; kinase still bound, per cent of control (EPHB3 (human)): 100%; kinase still bound, per cent of control (PRKCQ (human)): 43%; kinase still bound, per cent of control (RPS6KA5 KD2 (human)): 100%; kinase still bound, per cent of control (TESK1 (human)): 29%; kinase still bound, per cent of control (PAK2 (human)): 80%; kinase still bound, per cent of control (CAMKK2 (human)): 100%; kinase still bound, per cent of control (MAP2K4 (human)): 5%; kinase still bound, per cent of control (CHEK2 (human)): 100%
